The text below walks through data of patent publication US20110082161A1, “POWDERS FOR RECONSTITUTION” (priority 2008, published 2011).

The conditions of data set [1]: background statement; cited from earlier work.
The nature of data set [2]: Safety and tolerability in Phase I single-dose trial. It counts as in vivo, human healthy subjects. The following applies: single doses of 200 mg TMC125, healthy subjects. The source says:
No clinically relevant safety issues were identified with respect to the parameters studied, including AEs, laboratory and cardiovascular safety, and physical and skin examinations.

For `Cc1cc(C#N)cc(C)c1Oc1nc(Nc2ccc(C#N)cc2)nc(N)c1Br` [TMC125, 4-[[6-amino-5-bromo-2-[(4-cyanophenyl)amino]-4-pyrimidinyl]oxy]-3,5-dimethylbenzonitrile], the “solubility in aqueous media” value in data set [1] was “very insoluble”. Further, in data set [2], the “safety and tolerability (AEs, laboratory, cardiovascular, physical and skin examinations)” value was “generally safe and well tolerated”.
